Data taken from patent US20200264182A1, “METHOD FOR DETECTING PROSTATE CANCER” (J-OIL MILLS, INC., priority 2017, published 2020).

How the values were obtained:
FAC binding constant = conditions: at 25° C.
Procedure: (§1) Details of the FAC method are described in Patent Document 2 filed by some of the present applicants, for example.
(§2) Binding constants (at 25° C.) of PhoSL, SRL, NSL and LSL belonging to the fucose α1→6 specific lectin for various sugar chains are shown in Tables 2 to 5.

[1] = FAC binding constant (Table 5 entry); conditions: Table 5: sugar chain having no fucose; at 25° C.
Procedure: as §1, §2

serum fucosylated PSA = assay: Sandwich ELISA, anti-PSA antibody and biotin-labeled lectin; type: binding, human; conditions: for Δ (=A − B): reaction value of Prostate cancer 4 minus Healthy 1; for lectin reaction value B of Healthy 1: serum of Healthy 1; for lectin reaction value A of Prostate cancer 4: serum of Prostate cancer 4, GS 6 (3 + 3)
Procedure: The anti-PSA antibody from which sugar chains had been removed was diluted to 5 μg/mL with PBS. 25 μL of this diluted solution was added to each well of an ELISA plate and allowed to stand at 37° C. for 12 hours, and then the additive solution was discarded.
150 μL of PBS containing 0.05% Tween 20 (product name: polyoxyethylene sorbitan monolaurate, from Nacalai Tesque, Inc.) was added to each well, and then the additive solution was discarded. This manipulation was repeated three times in total.
25 μL of 1% BSA/PBS was added to each well and allowed to stand at 37° C. for 1 hour, and then the additive solution was discarded.
150 μL of PBS containing 0.05% Tween 20 was added to each well, and then the additive solution was discarded. This manipulation was repeated three times in total.
To graph a calibration curve, 25 μL of the fucosylated PSA reference standard diluted with 1% BSA/PBS to a concentration of 0 to 200 ng/mL was added to each well and allowed to stand at room temperature for 1 hour, and then the additive solution was discarded. In addition, to detect the fucosylated PSA in the serum of the subject by the lectin, 25 μL of serum of “Healthy 1” and “Prostate cancer 4” 2-fold diluted with PBS was added to each well and allowed to stand at room temperature for 1 hour, and then the additive solution was discarded.
In Reference Example 1, 25 μL of a biotin-labeled PhoSL diluted to 0.1 μg/mL with 0.1% BSA/PBS (pH 7.4) was added to each well and allowed to stand at 4° C. for 30 minutes, and then the additive solution was discarded. In Example 1, 25 μL of a biotin-labeled PhoSL diluted to 0.1 μg/mL with 0.1% BSA/10-fold diluted PBS+glycine-NaOH (pH 9.6) was added to each well and allowed to stand at 4° C. for 30 minutes, and then the additive solution was discarded.
25 μL of a horseradish peroxidase (HRP)-labeled streptavidin solution (from Vector Laboratories, Inc., concentration: 0.4 μg/mL, in 1% BSA/PBS) was added to each well and allowed to stand at room temperature for 30 minutes, and then the additive solution was discarded.
25 μL of chromogenic substrate for HRP (product name: TMB, from Kirkegaard & Perry Laboratories, Inc.) was added to each well and allowed to stand at room temperature for 10 minutes.
25 μL of 1M phosphoric acid was added to terminate the reaction.
Absorbance (Ab) at 450 nm and 630 nm was measured using a plate reader, and a measurement (Ab450-630) was obtained.
A calibration curve was graphed by plotting signals (reaction values, Ab450-630) of the fucosylated PSA reference standard with the biotin-labeled PhoSL. A Signal (Ab450-630) of the biotin-labeled PhoSL corresponding to the fucosylated PSA concentration of 10 ng/mL was defined as 10 U/mL.
The signals of biotin-labeled PhoSL (Ab450-630) for the serum fucosylated PSA in the subject samples A were assigned to the calibration curve to calculate reaction values (unit: U/mL).
The PhoSL reaction values for the subject samples A were measured by the same operation as in Example 1. From the PhoSL reaction values, an average value and a median value were determined. Furthermore, a standard cutoff value (89.7 U/mL) was used to determine a detection rate (positive rate) of the prostate cancer patients, and a false detection rate (false positive rate) of the healthy persons.
Comparative Example 2 in Table 9 indicates results of detecting the serum fucosylated PSA using AAL (AAL reaction values) in the subject samples A. Specifically, in Reference Example 1, AAL reaction values were measured in the same manner as in Reference Example 1 except that the biotin-labeled PhoSL was replaced with a biotin-labeled AAL. A standard cut-off value for the AAL reaction values was 894.8 U/mL. As in Example 2, an average value, a median value, a positive rate and a false positive rate were determined from the AAL reaction values.

[2] = sugar chain having fucose other than α1→6 fucose

SRL: fucose α1→6 specific lectin that can be extracted from Stropharia rugosoannulata, SEQ ID No. 2
234.5 U/mL: lectin reaction value A of Prostate cancer 4 (serum fucosylated PSA; pH in lectin reaction 9.6)
61000 M⁻¹: Binding constant for sugar chain No. 202 (FAC binding constant; sugar chain having α1→6 fucose)
54000 M⁻¹: Binding constant for sugar chain No. 405 (FAC binding constant; sugar chain having α1→6 fucose)
16.8 U/mL: lectin reaction value B of Healthy 1 (serum fucosylated PSA; pH in lectin reaction 9.6)
126.3 U/mL: Δ (=A − B) (serum fucosylated PSA; pH in lectin reaction 7.4)
217.7 U/mL: Δ (=A − B) (serum fucosylated PSA; pH in lectin reaction 9.6)
56000 M⁻¹: Binding constant for sugar chain No. 403 (FAC binding constant; sugar chain having α1→6 fucose)
146.3 U/mL: lectin reaction value A of Prostate cancer 4 (serum fucosylated PSA; pH in lectin reaction 7.4)
38000 M⁻¹: Binding constant for sugar chain No. 406 (FAC binding constant; sugar chain having α1→6 fucose)
57000 M⁻¹: Binding constant for sugar chain No. 401 (FAC binding constant; sugar chain having α1→6 fucose)
4300 M⁻¹: Binding constant for sugar chain No. 418 (FAC binding constant; sugar chain having α1→6 fucose)
44000 M⁻¹: Binding constant for sugar chain No. 402 (FAC binding constant; sugar chain having α1→6 fucose)
52000 M⁻¹: Binding constant for sugar chain No. 203 (FAC binding constant; sugar chain having α1→6 fucose)
64000 M⁻¹: Binding constant for sugar chain No. 201 (FAC binding constant; sugar chain having α1→6 fucose)
58000 M⁻¹: Binding constant for sugar chain No. 404 (FAC binding constant; sugar chain having α1→6 fucose)
20.0 U/mL: lectin reaction value B of Healthy 1 (serum fucosylated PSA; pH in lectin reaction 7.4)
32000 M⁻¹: Binding constant for sugar chain No. 602 (FAC binding constant; sugar chain having α1→6 fucose)
<1000 M⁻¹: Binding constant for sugar chain No. 728 (FAC binding constant; Table 3: sugar chain having fucose other than α1→6 fucose) | Binding constant for sugar chain No. 419 (FAC binding constant; [2]) | Binding constant for sugar chain No. 420 (FAC binding constant; [2]) | Binding constant for sugar chain No. 718 (FAC binding constant; [2]) | Binding constant for sugar chain No. 719 (FAC binding constant; [2]) | Binding constant for sugar chain No. 720 (FAC binding constant; [2]) | Binding constant for sugar chain No. 721 (FAC binding constant; [2]) | Binding constant for sugar chain No. 722 (FAC binding constant; [2]) | Binding constant for sugar chain No. 723 (FAC binding constant; [2]) | Binding constant for sugar chain No. 726 (FAC binding constant; [2]) | Binding constant for sugar chain No. 727 (FAC binding constant; [2]) | Binding constant for sugar chain No. 729 (FAC binding constant; [2]) | Binding constant for sugar chain No. 730 (FAC binding constant; [2]) | Binding constant for sugar chain No. 731 (FAC binding constant; [2]) | Binding constant for sugar chain No. 739 (FAC binding constant; [2]) | Binding constant for sugar chain No. 909 (FAC binding constant; [2]) | Binding constant for sugar chain No. 910 (FAC binding constant; [2]) | Binding constant for sugar chain No. 931 (FAC binding constant; [2]) | Binding constant for sugar chain No. 932 (FAC binding constant; [2]) | Binding constant for sugar chain No. 933 (FAC binding constant; [2]) | Binding constant for sugar chain No. 001 (FAC binding constant; sugar chain having no fucose) | Binding constant for sugar chain No. 002 (FAC binding constant; sugar chain having no fucose) | Binding constant for sugar chain No. 003 (FAC binding constant; sugar chain having no fucose) | Binding constant for sugar chain No. 004 (FAC binding constant; sugar chain having no fucose) | Binding constant for sugar chain No. 005 (FAC binding constant; sugar chain having no fucose) | Binding constant for sugar chain No. 006 (FAC binding constant; sugar chain having no fucose) | Binding constant for sugar chain No. 007 (FAC binding constant; sugar chain having no fucose) | Binding constant for sugar chain No. 008 (FAC binding constant; sugar chain having no fucose) | Binding constant for sugar chain No. 009 (FAC binding constant; sugar chain having no fucose) | Binding constant for sugar chain No. 010 (FAC binding constant; sugar chain having no fucose) | Binding constant for sugar chain No. 011 (FAC binding constant; sugar chain having no fucose) | Binding constant for sugar chain No. 012 (FAC binding constant; sugar chain having no fucose) | Binding constant for sugar chain No. 013 (FAC binding constant; sugar chain having no fucose) | Binding constant for sugar chain No. 014 (FAC binding constant; sugar chain having no fucose) | Binding constant for sugar chain No. 101 (FAC binding constant; sugar chain having no fucose) | Binding constant for sugar chain No. 103 (FAC binding constant; sugar chain having no fucose) | Binding constant for sugar chain No. 104 (FAC binding constant; sugar chain having no fucose) | Binding constant for sugar chain No. 105 (FAC binding constant; sugar chain having no fucose) | Binding constant for sugar chain No. 107 (FAC binding constant; sugar chain having no fucose) | Binding constant for sugar chain No. 108 (FAC binding constant; sugar chain having no fucose) | Binding constant for sugar chain No. 301 (FAC binding constant; sugar chain having no fucose) | Binding constant for sugar chain No. 304 (FAC binding constant; sugar chain having no fucose) | Binding constant for sugar chain No. 305 (FAC binding constant; sugar chain having no fucose) | Binding constant for sugar chain No. 307 (FAC binding constant; sugar chain having no fucose) | Binding constant for sugar chain No. 308 (FAC binding constant; sugar chain having no fucose) | Binding constant for sugar chain No. 313 (FAC binding constant; sugar chain having no fucose) | Binding constant for sugar chain No. 314 (FAC binding constant; sugar chain having no fucose) | Binding constant for sugar chain No. 323 (FAC binding constant; sugar chain having no fucose) | Binding constant for sugar chain No. 501 (FAC binding constant; sugar chain having no fucose) | Binding constant for sugar chain No. 502 (FAC binding constant; sugar chain having no fucose) | Binding constant for sugar chain No. 503 (FAC binding constant; sugar chain having no fucose) | Binding constant for sugar chain No. 504 (FAC binding constant; sugar chain having no fucose) | Binding constant for sugar chain No. 701 (FAC binding constant; sugar chain having no fucose) | Binding constant for sugar chain No. 702 (FAC binding constant; sugar chain having no fucose) | Binding constant for sugar chain No. 703 (FAC binding constant; sugar chain having no fucose) | Binding constant for sugar chain No. 704 (FAC binding constant; sugar chain having no fucose) | Binding constant for sugar chain No. 705 (FAC binding constant; sugar chain having no fucose) | Binding constant for sugar chain No. 706 (FAC binding constant; sugar chain having no fucose) | Binding constant for sugar chain No. 707 (FAC binding constant; sugar chain having no fucose) | Binding constant for sugar chain No. 708 (FAC binding constant; sugar chain having no fucose) | Binding constant for sugar chain No. 709 (FAC binding constant; sugar chain having no fucose) | Binding constant for sugar chain No. 710 (FAC binding constant; sugar chain having no fucose) | Binding constant for sugar chain No. 711 (FAC binding constant; sugar chain having no fucose) | Binding constant for sugar chain No. 712 (FAC binding constant; sugar chain having no fucose) | Binding constant for sugar chain No. 713 (FAC binding constant; sugar chain having no fucose) | Binding constant for sugar chain No. 715 (FAC binding constant; sugar chain having no fucose) | Binding constant for sugar chain No. 716 (FAC binding constant; sugar chain having no fucose) | Binding constant for sugar chain No. 717 (FAC binding constant; sugar chain having no fucose) | Binding constant for sugar chain No. 724 (FAC binding constant; sugar chain having no fucose) | Binding constant for sugar chain No. 725 (FAC binding constant; sugar chain having no fucose) | Binding constant for sugar chain No. 732 (FAC binding constant; sugar chain having no fucose) | Binding constant for sugar chain No. 733 (FAC binding constant; sugar chain having no fucose) | Binding constant for sugar chain No. 734 (FAC binding constant; sugar chain having no fucose) | Binding constant for sugar chain No. 735 (FAC binding constant; sugar chain having no fucose) | Binding constant for sugar chain No. 736 (FAC binding constant; sugar chain having no fucose) | Binding constant for sugar chain No. 737 (FAC binding constant; sugar chain having no fucose) | Binding constant for sugar chain No. 738 (FAC binding constant; sugar chain having no fucose) | Binding constant for sugar chain No. 901 (FAC binding constant; sugar chain having no fucose) | Binding constant for sugar chain No. 902 (FAC binding constant; sugar chain having no fucose) | Binding constant for sugar chain No. 903 (FAC binding constant; sugar chain having no fucose) | Binding constant for sugar chain No. 905 (FAC binding constant; sugar chain having no fucose) | Binding constant for sugar chain No. 906 (FAC binding constant; sugar chain having no fucose) | Binding constant for sugar chain No. 907 (FAC binding constant; sugar chain having no fucose) | Binding constant for sugar chain No. 728 [1]
10000 M⁻¹: Binding constant for sugar chain No. 407 (FAC binding constant; sugar chain having α1→6 fucose) | Binding constant for sugar chain No. 601 (FAC binding constant; sugar chain having α1→6 fucose)
39000 M⁻¹: Binding constant for sugar chain No. 410 (FAC binding constant; sugar chain having α1→6 fucose)
49000 M⁻¹: Binding constant for sugar chain No. 015 (FAC binding constant; sugar chain having α1→6 fucose)
